pIC50: −log10 of the molar value. Values joined by “and” are separate entries in the source; they are usually repeats but may differ in a detail not shown here. Equal values may be shown once.
How the values were obtained:
RBL-2H3 cells = assay: IgE-induced Beta-hexosaminidase secretion in RBL-2H3 cells; type: cell-based; conditions: DNP-BSA stimulation
Description: For the determination of IgE-induced Beta-hexosaminidase secretion, RBL-2H3 cells (SIBS) are seeded in 96 well plates at 4×10^4 cells per well and incubated in MEM media with 15% FBS and Glutamine ([…]) for 4 hours and sensitized with 0.5 ug/ml of SPE-7 overnight. Cells are washed 3 times with Tyrode's buffer and incubated in the presence or absence of various concentrations of the testing compound for 20 min at 37° C., 5% CO2. Cells are stimulated by adding 10 uL of DNP-BSA solution (150 ng/mL) to each well and incubating for 45 minutes at 37° C., 5% CO2. Then, 45 μL of the supernatant is taken and incubated with 100 μL of 1 mM 4-Nitrophenyl N-acetyl-β-D-glucosaminide (Sigma, Cat. No. N9376), which is diluted in 0.05 M citrate buffer (pH 4.5), for 1.5 hr at 37° C. The reactions are quenched by adding 185 μL of 0.05 M sodium carbonate buffer (pH 10.0). Plates are read at 405 nm on Multiskan (MK 3).

Syk kinase = Syk kinase (Homo sapiens, UniProt P43405); assay: SYK Enzymatic Assay (Z-LYTE Tyr 2 peptide); type: biochemical; conditions: 8 concentrations 1 μM down to 0.0003 μM
Description: Syk kinase assay are performed in vitro using Kit-Tyr 2 Peptide (Invitrogen, Cat. No. PV3191) and in a 384-well assay plate. […] The 384-well assay plate (Corning, Cat. No. 3575) is mixed and incubated at room temperature for 1 hour. 10 μL of the Development Solution (prepared by diluting Development Reagent A (Cat. No. PV3297) to 1/32 with Development Buffer (Cat. No. PV3127)) is then added to each well, mixed and incubated at room temperature for another 1 hour. The reactions are then stopped by adding 10 μL of the Stop Reagent (Invitrogen, Cat. No. PV3094), and the plate is read with Wallac 1420 VICTOR^3 Multilabel Counter (PerkinElmer™) at 445 nm and 520 nm fluorescence. All compounds are tested at 8 concentrations (1 μM down to 0.0003 μM) using a 1:3 serial dilution scheme.

[1] = Rattus norvegicus, RBL-2H3, IgE-induced Beta-hexosaminidase secretion
[2] = IgE-induced Beta-hexosaminidase secretion

Compound	pIC50 (RBL-2H3 cells; [1])	pIC50 (Syk kinase)	pIC50 (RBL-2H3 cells; [2])
CS(=O)(=O)N1CCO[C@H](COc2nc(-c3ccc(N4CCNCC4)cc3)cc3nccnc23)C1 [Compound 14]	6.20	7.60	
NC(=O)N1CCO[C@H](COc2nc(-c3ccc(C4(O)CCC4)cc3)cc3nccnc23)C1 [Compound 311]	6.21	7.46	
CC(C)(O)C1CCN(c2ccc(-c3cc4nccnc4c(OC[C@@H]4CN(S(C)(=O)=O)CCO4)n3)cc2)CC1 [Compound 22]	7.14	7.80	
CN(C)c1ccc(-c2cc3nccnc3c(OC[C@@H]3CN(C(=O)C(F)F)CCO3)n2)cc1 [Compound 100]	7.17	7.51	
CN(C)c1ccc(-c2cc3nccnc3c(OC3CCCOC3)n2)cc1 (stereo not drawn) [Compound 127]	7.11	7.24	
CNC(=O)N1CCO[C@H](COc2nc(-c3ccc(N(C)C)c(F)c3)cc3nccnc23)C1 [Compound 184]	7.21	7.08	
CN1CCN(c2ccc(-c3cc4nccnc4c(OC[C@@H]4CN(S(N)(=O)=O)CCO4)n3)cc2)CC1 [Compound 64]	6.31	7.70	
CC(=O)N1CCN(c2ccc(-c3cc4nccnc4c(O[C@@H]4CCCOC4)n3)cc2)CC1 [Compound 177]	7.10	7.04	
CC(O)c1ccc(-c2cc3nccnc3c(OC[C@@H]3CN(S(C)(=O)=O)CCO3)n2)cc1 (stereo partly drawn) [Compound 213, 1-(4-(5-(((S)-4-(methylsulfonyl)morpholin-2-yl)methoxy)pyrido[3,4-b]pyrazin-7-yl)phenyl)ethanol]	7.15	7.24	
CC(C)c1ccc(-c2cc3nccnc3c(OC[C@@H]3CN(C(N)=O)CCO3)n2)cc1 [Compound 175]	7.16	7.26	
CN(C)c1ccc(-c2cc3nccnc3c(OC[C@@H]3CN(C(=O)C4CC(F)(F)C4)CCO3)n2)cc1 [Compound 71]	6.47	6.90	
O=C(C(F)F)N1CCO[C@H](COc2nc(-c3ccc(N4CCOCC4)c(F)c3)cc3nccnc23)C1 [Compound 15]	6.99	7.02	
NS(=O)(=O)N1CCO[C@H](COc2nc(-c3ccc(N4CCCC4)cc3)cc3nccnc23)C1 [Compound 30]	6.56	7.37	
Cn1ccc2cc(-c3cc4nccnc4c(OC[C@@H]4CN(S(C)(=O)=O)CCO4)n3)ccc21 [Compound 39]	7.12	7.48	
CNC(=O)N1CCO[C@H](COc2nc(-c3ccc(C(C)(C)C#N)cc3)cc3nccnc23)C1 [Compound 249]	7.16	7.38	
CN(C)c1ccc(-c2cc3nccnc3c(OC[C@@H]3CN(C(=O)CC4CC4)CCO3)n2)cc1 [Compound 70]	6.67	7.00	
CC1(c2ccc(-c3cc4nccnc4c(OC[C@@H]4CN(S(C)(=O)=O)CCO4)n3)cc2)COC1 [Compound 317]	7.03	7.48	
CC(C)c1ccc(-c2cc3nccnc3c(OC[C@@H]3CN(S(C)(=O)=O)CCO3)n2)cc1 [Compound 181]	7.24	7.04 and 7.17	7.16
CS(=O)(=O)N1CCO[C@H](COc2nc(-c3ccc(C4(C#N)CC4)cc3)cc3nccnc23)C1 [Compound 274]	7.23	7.40	

Compound	pIC50 (RBL-2H3 cells; [1])	pIC50 (Syk kinase)	pIC50 (RBL-2H3 cells; [2])
CC1(C)OCCc2cc(-c3cc4nccnc4c(OC[C@@H]4CN(C(N)=O)CCO4)n3)ccc21 [Compound 301]	6.97	7.62	
Cc1cc(-c2cc3nccnc3c(OC[C@@H]3CN(C(=O)[C@@H](C)O)CCO3)n2)ccc1N(C)C [Compound 200]	6.88	7.29	
CCC(O)(CC)c1ccc(-c2cc3nccnc3c(OC[C@@H]3CN(S(N)(=O)=O)CCO3)n2)cc1 [Compound 283]	6.61	7.36	
CN(C)c1ccc(-c2cc3nccnc3c(OC[C@@H]3CN(C(=O)c4cccnc4)CCO3)n2)cc1 [Compound 78]	7.13	7.21	
CS(=O)(=O)N1CCO[C@H](COc2nc(-c3ccc(C4(C#N)CCC4)cc3)cc3nccnc23)C1 [Compound 282]	7.04	7.59	
CC(=O)N1CCO[C@H](COc2nc(-c3ccc(N4CCOCC4)cc3)cc3nccnc23)C1 [Compound 24]	6.90	7.12	
C[C@H](O)C(=O)N1CCO[C@H](COc2nc(-c3ccc(N(C)C)cc3)cc3nccnc23)C1 [Compound 197]	7.09	7.07	
NS(=O)(=O)N1CCO[C@H](COc2nc(-c3ccc(N4CCC(F)(F)CC4)cc3)cc3nccnc23)C1 [Compound 29]	6.97	7.18	
CN(C)c1ccc(-c2cc3nccnc3c(OC[C@@H]3CN(C(=O)C4CCCC4)CCO3)n2)cc1 [Compound 98]	6.64	7.26	
CS(=O)(=O)N1CCO[C@H](COc2nc(-c3ccc4c(c3)OCCO4)cc3nccnc23)C1 [Compound 109]	6.88	7.01	
CC(C)(C)C(O)c1ccc(-c2cc3nccnc3c(OC[C@@H]3CN(S(C)(=O)=O)CCO3)n2)cc1 (stereo partly drawn) [Compound 284]	6.71	7.01	
CC(=O)N1CCO[C@H](COc2nc(-c3ccc(NC(C)C)cc3)cc3nccnc23)C1 [Compound 141]	7.09	7.01	
CN1CCN(c2ccc(-c3cc4nccnc4c(OC[C@@H]4CNC(=O)C4)n3)cc2)CC1 [Compound 225]	6.52	7.33	
CN(C)c1ccc(-c2cc3nccnc3c(OC[C@@H]3CN(C(=O)Cc4c[nH]cn4)CCO3)n2)cc1 [Compound 84]	6.50	7.09	
CS(=O)(=O)N1CCO[C@H](COc2nc(-c3ccc(N4CCOCC4)c(F)c3)cc3nccnc23)C1 [Compound 7]	6.91	7.15	
CNS(=O)(=O)N1CCO[C@H](COc2nc(-c3ccc(N(C)C)cc3)cc3nccnc23)C1 [Compound 211]	7.11	7.24	
NS(=O)(=O)N1CCO[C@H](COc2nc(-c3ccc(C4CCOCC4)cc3)cc3nccnc23)C1 [Compound 260]	6.87	7.62	
c1cnc2c(O[C@@H]3CCOC3)nc(-c3ccc(N4CCOCC4)cc3)cc2n1 [Compound 149]	7.22	7.52	

Further compounds by rising pIC50 (RBL-2H3 cells; [1]), results first:

pIC50 (RBL-2H3 cells; [1])	pIC50 (Syk kinase)	pIC50 (RBL-2H3 cells; [2])	Compound
7.25	7.17		CN(C)c1ccc(-c2cc3nccnc3c(OC[C@H]3CNC(=O)C3)n2)cc1 [Compound 232]
7.27	7.49		CN(C)c1ccc(-c2cc3nccnc3c(OC[C@@H]3CN(C(=O)CO)CCO3)n2)cc1 [Compound 173]
7.33	7.38		CNc1ccc(-c2cc3nccnc3c(OC[C@@H]3CN(S(C)(=O)=O)CCO3)n2)cc1F [Compound 52]
7.37	7.51		CN1CCN(c2ccc(-c3cc4nccnc4c(O[C@@H]4CCOC4)n3)cc2)CC1 [Compound 125]
7.37	7.36		CCN(CC)c1ccc(-c2cc3nccnc3c(O[C@@H]3CCOC3)n2)cc1 [Compound 151]
7.40	7.60		CN1CCN(c2ccc(-c3cc4nccnc4c(OC[C@@H]4CN(S(C)(=O)=O)CCO4)n3)cc2)CC1 [Compound 13]
7.41	7.55		CCN(CC)c1ccc(-c2cc3nccnc3c(OC[C@@H]3CN(C(C)=O)CCO3)n2)cc1 [Compound 131]
7.43	7.89		COc1ccc(-c2cc3nccnc3c(OC[C@@H]3CN(S(C)(=O)=O)CCO3)n2)cc1OC [Compound 43]
7.44	7.74		COC(C)(C)c1ccc(-c2cc3nccnc3c(OC[C@@H]3CN(S(C)(=O)=O)CCO3)n2)cc1 [Compound 268]
7.49	7.52		Cc1cc(-c2cc3nccnc3c(O[C@@H]3CCOC3)n2)ccc1N1CCN(S(C)(=O)=O)CC1 [Compound 210]
7.49	7.42		CC(=O)N1CCC(c2ccc(-c3cc4nccnc4c(O[C@@H]4CCOC4)n3)cc2)CC1 [Compound 156]
7.54	7.57		O=C(C(F)F)N1CCO[C@H](COc2nc(-c3ccc(N4CCOCC4)cc3)cc3nccnc23)C1 [Compound 61]
7.57	7.59		CN(C)c1ccc(-c2cc3nccnc3c(OC[C@@H]3CN(S(C)(=O)=O)CCO3)n2)cn1 [Compound 218]
7.70	7.80		CN1CCc2cc(-c3cc4nccnc4c(OC[C@@H]4CN(S(C)(=O)=O)CCO4)n3)ccc21 [Compound 214]
7.72	7.57		CC(=O)N1CCN(c2ccc(-c3cc4nccnc4c(O[C@@H]4CCOC4)n3)cc2C)CC1 [Compound 205]
8.10	7.96	7.85	CN1CCCc2cc(-c3cc4nccnc4c(OC[C@@H]4CN(S(C)(=O)=O)CCO4)n3)ccc21 [Compound 207]

Reference: US20170152258A9, “Substituted Pyridopyrazines as Syk Inhibitors” (HUTCHISON MEDIPHARMA LIMITED, priority 2012, published 2017)
